According to paper PMC8909834, “An Orally Bioavailable and Highly Efficacious Inhibitor of CDK9/FLT3 for the Treatment of Acute Myeloid Leukemia” (Cancers, 2022):

Tests used:
Format in all cases: cell-based
U937 = assay: Cell viability assay (resazurin); conditions: Homo sapiens, U-937; U937, 72 h, mean ± SD
Method: (§1) Cell culture. MV4-11, HL60, K-562, THP-1, MO91, and U937 cell lines were from the ATCC (Rockville, MD, USA); MOLM-13, NB4, and PL21 cell lines were from the DSMZ (Braunschweig, Germany); and Jurkat cells were from the ECACC (Salisbury, UK). All cells were cultured in RPMI medium (Sigma-Aldrich) supplemented with 10% to 20% of heat-inactivated fetal bovine serum (Sigma-Aldrich), and cells were maintained at 37 °C, 5% CO2, and 95% humidity. All the cell lines were tested to be mycoplasma-negative using MycoAlert^TM mycoplasma detection kit (Lonza, Derrimut, VIC, Australia).
(§2) Cell viability assay. The viability of leukemia cell lines after incubation with CDDD11-8 was determined by their ability to reduce resazurin, as described previously. Cells (5 × 10^3) were seeded into 96-well plates (Corning Inc., Corning, NY, USA) and incubated overnight at 37 °C. Subsequently, they were incubated with CDDD11-8 (concentrations ranging from 0.003 µM to 31.6 µM; using three-fold serial dilutions) or DMSO (final concentration of 0.1%) for 72 h. Afterwards, cells were incubated with 20 µL of resazurin (0.1 mg/mL in PBS) for 4 h at 37 °C under 5% CO2, and the fluorescence intensities were measured using an EnVision® multilabel plate reader at 570 nm (excitation)/585 nm (emission). The concentration required to inhibit cellular growth by 50% (GI50) was determined using the same non-linear regression model as shown above, with Ar (%) = % cell viability, and IC50 replaced with GI50.

JURKAT = assay: Cell viability assay (resazurin); conditions: Homo sapiens, 72 h, mean ± SD
Method: as §1, §2

PL21 = assay: Cell viability assay (resazurin); conditions: PL21, 72 h, mean ± SD
Method: as §1, §2

NB4 = assay: Cell viability assay (resazurin); conditions: Homo sapiens, NB-4; NB4, 72 h, mean ± SD
Method: as §1, §2

HL60 = assay: Cell viability assay (resazurin); conditions: Homo sapiens, HL-60; HL60, 72 h, mean ± SD
Method: as §1, §2

K-562 = assay: Cell viability assay (resazurin); conditions: Homo sapiens, K562; K-562, 72 h, mean ± SD
Method: as §1, §2

MOLM-13 = assay: Cell viability assay (resazurin); conditions: MOLM-13, 72 h, mean ± SD
Method: as §1, §2

THP-1 = assay: Cell viability assay (resazurin); conditions: THP-1, 72 h, mean ± SD
Method: as §1, §2

MV4-11 cells = assay: Western blotting of cellular signaling pathways
Method: (§3) Western blotting. Western blotting was performed as described previously. Briefly, cells were lysed after incubation with different concentrations of compounds or control (0.1% DMSO) at the indicated times, samples were denatured at 95 °C for 5 min, and proteins having different molecular weights within each sample were separated by electrophoresis (Bio-Rad, Hercules, CA, USA) on polyacrylamide gels (4–20%, Bio-Rad). Resolved proteins were electrophoretically transferred onto a PVDF membrane and blocked by incubating with 10% w/v non-fat powdered milk dissolved in 1 × Tris-buffered saline-tween 20 (TBST) for 1 h at room temperature prior to incubating overnight with primary antibodies at 4 °C with slight shaking. Chemiluminescence was detected with a ChemiDoc^TM gel imaging system after the membranes have been exposed to ECL substrates (GE Healthcare, PA, USA), and the Image Lab software (Bio-Rad) was used for image capture. The primary antibodies used were: β-Actin (Invitrogen, Cat MA515739, 1:5000), β-Tubulin (Cell Signaling Technology, Cat 2146, 1:1000), AKT (Cell Signaling Technology, Cat 9272, 1:1000), c-MYC (Cell Signaling Technology, Cat 5605, 1:1000), Caspase-3 (Cell Signaling Technology, Cat 9665, 1:1000), Cleaved PARP (Cell Signaling Technology, Cat 5625, 1:1000), ERK1/2 (p44/42 MAPK, Cell Signaling Technology, Cat 4695, 1:1000), GAPDH (Invitrogen, Cat PA1987, 1:1000), MCL-1 (Cell Signaling Technology, Cat 942965, 1:1000), PARP (Cell Signaling Technology, Cat 9532, 1:1000), Phospho-AKT (Ser473) (Cell Signaling Technology, Cat 9271, 1:1000), Phospho-ERK (Thr202/Tyr204) (Cell Signaling Technology, Cat 4370, 1:1000), Phospho-FLT3 (Tyr591) (Cell Signaling Technology, Cat 3461, 1:1000), Phospho-STAT5 (Tyr694) (Cell Signaling Technology, Cat 9359, 1:1000), RNAP II CTD (BioLegend (CA, USA), Cat 664906, 1:1000), RNAP II CTD Phospho-Ser2 (BioLegend, Cat 920204, 1:1000), RNAP II CTD Phospho-Ser5 (Abcam, Cat ab5408, 1:1000), STAT5 (Cell Signaling Technology, Cat 9363, 1:1000), and XIAP (Cell Signaling Technology, Cat 14334, 1:1000). Bands were quantified using ImageJ software (US National Institutes of Health, Bethesda, MD, USA).

MOLM-13 cells = assay: Western blotting of cellular signaling pathways; conditions: MOLM-13, 24 h, concentration-dependent
Method: as §3

[1] = MV4-11, time-course, within 2 h

Cc1cnc(N[C@H]2CC[C@H](N)CC2)nc1-c1cnc2ccc(-c3ccccc3)cn12 [CDDD11-8]
GI50 (U937): 713 ± 93 nM
GI50 (JURKAT): 599 ± 90 nM
GI50 (PL21): 339 ± 34 nM
GI50 (PL21; PL-21, 72 h): 340 nM
GI50 (NB4): 473 ± 107 nM
GI50 (HL60): 475 ± 25 nM
GI50 (K-562): 1500 ± 47 nM
GI50 (MOLM-13; Homo sapiens): < 100 nM
GI50 (MOLM-13): 70 ± 20 nM
GI50 (THP-1; Homo sapiens): 460 nM
GI50 (THP-1): 459 ± 40 nM
level of p-FLT3 Tyr591 (MV4-11 cells; MV4-11): reduced
expression of MCL-1 (MV4-11 cells; MV4-11, 1 µM, 24 h): reduced to almost undetectable levels
expression of XIAP (MV4-11 cells; MV4-11, 1 µM, 24 h): reduced to almost undetectable levels
expression of c-MYC (MV4-11 cells; MV4-11, 0.3 and 1 µM, as early as 2 h): completely blocked
reduction of p-RNAP II Ser2 level (MV4-11 cells; [1]): approximately 20%
reduction of p-RNAP II Ser5 level (MV4-11 cells; [1]): approximately 20%
phosphorylation of RNAP II CTD at Ser2 and Ser5 (MOLM-13 cells): suppressed
